Laboratory results reported in the supplement of paper PMC8671470.
± gives the standard deviation of the averaged measurements.

Key:
[1] = tested on: HL-60; assay: cell viability (% survival relative to DMSO control); higher = less cytotoxic; settings: 72 h
In short: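 In 384-well plates, the full library was rescreened in duplicate on HL-60 cells in RPMI 1640 with 10% FBS, at 1–10,000 nM in five tenfold concentrations, for 72 h at 37 °C, 5% CO2. Each run also held DMSO or 100 nM of one of three metabolic inhibitors. Viability was measured by CellTiter-Glo and normalised to DMSO wells and to wells with proteasome inhibitor, present at 10 μM. Any area under the curve comes from four-parameter log-logistic fitting with drc and PharmacoGx.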

[2] = tested on: LAMA-84; assay: cell viability (% survival relative to DMSO control, bortezomib = 0%); higher = less cytotoxic; settings: 72 h
In short: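 After 72 h at 37 °C with 5% CO2, cell viability in 384-well plates was measured by CellTiter-Glo luminescence. The plates held compounds pre-printed at 1, 10, 100, 1000 or 10000 nM in duplicate, and cells from 10 AML and 5 CML lines seeded at densities titrated to linear growth. Percent survival is the duplicate mean, normalised to vehicle as 100% and a 10 µM positive control as 0%.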

[3] = 0.001 µM, co-treatment: AZD3965 100 nM
[4] = 0.001 µM, co-treatment: DMSO vehicle
[5] = 0.001 µM, co-treatment: GSK2194069 100 nM
[6] = 0.001 µM, co-treatment: pictilisib 100 nM
[7] = 0.01 µM, co-treatment: AZD3965 100 nM
[8] = 0.01 µM, co-treatment: DMSO vehicle
[9] = 0.01 µM, co-treatment: GSK2194069 100 nM
[10] = 0.01 µM, co-treatment: pictilisib 100 nM
[11] = 0.1 µM, co-treatment: AZD3965 100 nM
[12] = 0.1 µM, co-treatment: DMSO vehicle
[13] = 0.1 µM, co-treatment: GSK2194069 100 nM
[14] = 0.1 µM, co-treatment: pictilisib 100 nM
[15] = 1 µM, co-treatment: AZD3965 100 nM
[16] = 1 µM, co-treatment: DMSO vehicle
[17] = 1 µM, co-treatment: GSK2194069 100 nM
[18] = 1 µM, co-treatment: pictilisib 100 nM
[19] = 10 µM, co-treatment: AZD3965 100 nM
[20] = 10 µM, co-treatment: DMSO vehicle
[21] = 10 µM, co-treatment: GSK2194069 100 nM
[22] = 10 µM, co-treatment: pictilisib 100 nM

| Structure (SMILES) | cell viability [1, 3] | cell viability [1, 4] | cell viability [1, 5] | cell viability [1, 6] | cell viability [1, 7] | cell viability [1, 8] | cell viability [1, 9] | cell viability [1, 10] | cell viability [1, 11] | cell viability [1, 12] | cell viability [1, 13] | cell viability [1, 14] | cell viability [1, 15] | cell viability [1, 16] | cell viability [1, 17] | cell viability [1, 18] | cell viability [1, 19] | cell viability [1, 20] | cell viability [1, 21] | cell viability [1, 22] | cell viability ([2]; 1 nM) | cell viability ([2]; 10 nM) | cell viability ([2]; 100 nM) | cell viability ([2]; 1000 nM) | cell viability ([2]; 10000 nM) |
| --- | --- | --- | --- | --- | --- | --- | --- | --- | --- | --- | --- | --- | --- | --- | --- | --- | --- | --- | --- | --- | --- | --- | --- | --- | --- |
| NS(=O)(=O)c1ccc([N+](=O)[O-])cc1 [4-Nitrobenzenesulfonamide] | 91.2 ± 9.5% | 92.3 ± 10% | 96.7 ± 2.9% | 105 ± 14% | 100.8 ± 0.12% | 96.5 ± 4.2% | 96.8 ± 3.1% | 98.6 ± 2.2% | 103 ± 2.7% | 104 ± 5.4% | 100.73 ± 0.083% | 101 ± 1.9% | 97.7 ± 3% | 104 ± 1.6% | 102 ± 6% | 99.4 ± 5.1% | 90.6 ± 17% | 100 ± 1.9% | 98.17 ± 0.39% | 91.7 ± 7.5% | 99.5% | 95.1% | 103% | 95.4% | 98.6% |
| Cc1coc2c1C(=O)C(=O)c1c-2ccc2c1CCCC2(C)C [Tanshinone IIA] | 106 ± 3.5% | 100.1 ± 0.14% | 106.9 ± 0.96% | 95.5 ± 8.2% | 106 ± 1.5% | 105 ± 4.4% | 110.7 ± 0.96% | 111 ± 14% | 104 ± 12% | 101 ± 0.13% | 105 ± 5.8% | 107 ± 13% | 101 ± 4.3% | 99.49 ± 0.73% | 101.4 ± 0.95% | 109 ± 13% | 103 ± 4.8% | 99 ± 6.2% | 97.5 ± 4% | 109 ± 13% | 102% | 97.7% | 98.5% | 99.6% | 102% |
| CCOP(=O)(OCC)C(=Cc1cc(C(C)(C)C)c(O)c(C(C)(C)C)c1)P(=O)(OCC)OCC | 95.9 ± 1.6% | 100 ± 8% | 101 ± 4.7% | 96.4 ± 4% | 101 ± 5.9% | 105 ± 2.3% | 104 ± 5% | 99.31 ± 0.66% | 109 ± 18% | 99.5 ± 2.6% | 102 ± 2% | 107 ± 8.3% | 101 ± 7% | 104 ± 4% | 102 ± 1.5% | 94.9 ± 2% | 98 ± 5.1% | 105 ± 1.3% | 94.5 ± 9% | 103 ± 7.4% | 94.8% | 99.1% | 114% | 97.6% | 94.1% |
| COc1ccc(-c2ccccc2)cc1NS(=O)(=O)c1cc(Cl)cc(Cl)c1O | 99.4 ± 2.4% | 96.3 ± 2.8% | 93.5 ± 2.1% | 103 ± 10% | 102 ± 1.4% | 104.5 ± 0.32% | 99 ± 2.9% | 104 ± 4.6% | 99 ± 1.8% | 109 ± 14% | 109 ± 23% | 114 ± 19% | 96 ± 2.2% | 103 ± 3.8% | 92.7 ± 2.3% | 100 ± 4.6% | 99.06 ± 0.47% | 99 ± 3.5% | 98.5 ± 3.8% | 93.2 ± 18% | 102% | 95.1% | 113% | 103% | 99% |
| COc1ccc2c(C(=S)N(C)CC(=O)O)cccc2c1C(F)(F)F [Tolrestat] | 97.3 ± 1.8% | 96 ± 0.68% | 99 ± 1.9% | 95.7 ± 3% | 106 ± 5.3% | 106 ± 3.4% | 104.6 ± 0.97% | 104 ± 8.2% | 104 ± 3.8% | 104 ± 2.6% | 97.5 ± 1.3% | 96.8 ± 5.6% | 97.9 ± 4.6% | 99.23 ± 0.18% | 94.1 ± 4.1% | 88.1 ± 8.6% | 98.253 ± 0.033% | 103.9 ± 0.94% | 97.1 ± 8.5% | 100 ± 2% | 97.7% | 106% | 100% | 95.6% | 98.6% |
| CC(C)(C#N)c1cc(Cn2cncn2)cc(C(C)(C)C#N)c1 [Anastrozole] | 97.5 ± 3.3% | 101 ± 6.5% | 96.7 ± 12% | 104 ± 4.6% | 101.3 ± 0.95% | 100 ± 2.8% | 94.4 ± 5.3% | 92.3 ± 1.6% | 102 ± 1.2% | 101 ± 2.3% | 120 ± 3.8% | 106 ± 13% | 102 ± 1.9% | 101.7 ± 0.4% | 102 ± 1.1% | 108 ± 7.9% | 100 ± 6.9% | 102 ± 2.8% | 100 ± 13% | 101 ± 3.9% | 93.5% | 97.6% | 96.3% | 99.9% | 97.7% |
| CCCCCCCCCCC[C@@H](C[C@@H]1OC(=O)[C@H]1CCCCCC)OC(=O)[C@H](CC(C)C)NC=O [Orlistat] | 98.6 ± 3.3% | 93.7 ± 0.7% | 94.4 ± 1.7% | 99.1 ± 2.1% | 99.5 ± 3.5% | 105 ± 2.1% | 96.4 ± 6.2% | 109 ± 6.4% | 102 ± 4.7% | 104 ± 3.7% | 109 ± 24% | 95.6 ± 3.8% | 94.9 ± 5.9% | 98.57 ± 0.82% | 94.7 ± 3.8% | 94.4 ± 7.5% | 100 ± 1.6% | 99.8 ± 2.4% | 77.7 ± 8.3% | 90.5 ± 10% | 101% | 103% | 93.9% | 93.7% | 94.4% |
| O=C(O)C[C@@]1(O)C[C@@H](CCCCCCc2ccc(Cl)cc2Cl)OC1=O | 104 ± 2.9% | 102 ± 1.9% | 108 ± 6.6% | 107 ± 3% | 104 ± 2.1% | 105 ± 3.1% | 108 ± 9.2% | 109.5 ± 0.28% | 100 ± 4.4% | 97.05 ± 0.83% | 95.77 ± 0.87% | 92.03 ± 0.35% | 98.7 ± 1.1% | 103 ± 1.1% | 99.5 ± 4.9% | 103 ± 1.8% | 95.4 ± 7.3% | 99.13 ± 0.47% | 93.44 ± 0.53% | 99.5 ± 1.9% | 99.6% | 99.8% | 92.7% | 97.3% | 96.7% |
| CCCCC/C=C\C/C=C\C/C=C\C/C=C\CCCCN1C(=O)C=CC1=O [N-Arachidonylmaleimide] | 98.7 ± 5.8% | 92.6 ± 2.7% | 96.8 ± 12% | 96.4 ± 4.4% | 89.7 ± 24% | 95.4 ± 5.9% | 84.8 ± 18% | 84.8 ± 1.7% | 98.58 ± 0.45% | 101.04 ± 0.026% | 98.4 ± 4.1% | 97 ± 4.4% | 99.6 ± 8.7% | 101 ± 7.1% | 100 ± 3.1% | 97.89 ± 0.76% | 101 ± 1.9% | 100.9 ± 0.64% | 100.5 ± 0.71% | 103 ± 2.2% | 96.8% | 99.9% | 98.4% | 97.7% | 96% |
